{
  "source": "patent US20020054941A1",
  "about": "“Methods and compositions to enhance tenderness and value of meat” (The Board of Regents of the University of Nebraska, priority 2000, published 2002)",
  "key": {"Infraspinatus (ISP)": {"test_system": "Infraspinatus (ISP)", "assay": "Warner-Bratzler shear force of muscle pumped pre-rigor with sodium citrate", "parameters": "species or system steers; unit not given here", "description": "(§1) Thoracic limbs from 14 steers were chilled on the carcass (controls) or removed within 2 hours post-mortem and pumped to 10% of muscle weight with water, 200 mM or 400 mM sodium citrate solutions. The injections were performed at various sites along the muscle. The control remained on the carcass. Muscle pH and temperature were measured immediately prior to pumping. Experimental and control muscles were chilled at 2° C. for 24 hours. Steaks (2.54 cm thick) were removed after 24 hours from the Infraspinatus, Supraspinatus and Triceps brachii muscles and were either frozen immediately or aged for another 6 days and then evaluated. A consumer panel evaluated palatability juiciness, tenderness, connective tissue amount, and flavor desirability) on Infraspinatus and Triceps brachii steaks using 9-point hedonic scales (1 being very undesirable and 9 being very desirable) for each trait. Warner-Bratzler shear force values were determined on 1.27 cm-diameter cores from steaks that were broiled to an internal temperature of 70° C."}, "Triceps brachii (TBR)": {"test_system": "Triceps brachii (TBR)", "assay": "Warner-Bratzler shear force of muscle pumped pre-rigor with sodium citrate", "parameters": "species or system steers; unit not given here", "description": "as §1"}},
  "note": "Marks after values point to notes of the source that are not given here.",
  "data": [
    {"molecule": "O=C([O-])CC(O)(CC(=O)[O-])C(=O)[O-].[Na+].[Na+].[Na+]", "note": "[Sodium citrate, sodium citrate]", "values": [
      {"measurement": "WBSF", "setting": "Infraspinatus (ISP); 200 mM, d1", "value": "3.57^b"},
      {"measurement": "WBSF", "setting": "Infraspinatus (ISP); 200 mM, d7", "value": "3.12^b"},
      {"measurement": "WBSF", "setting": "Infraspinatus (ISP); 400 mM, d1", "value": "3.32^a"},
      {"measurement": "WBSF", "setting": "Infraspinatus (ISP); 400 mM, d7", "value": "2.79^a"},
      {"measurement": "WBSF", "setting": "Triceps brachii (TBR); 200 mM, d1", "value": "3.85^a"},
      {"measurement": "WBSF", "setting": "Triceps brachii (TBR); 200 mM, d7", "value": "3.57^b"},
      {"measurement": "WBSF", "setting": "Triceps brachii (TBR); 400 mM, d1", "value": "3.55^a"},
      {"measurement": "WBSF", "setting": "Triceps brachii (TBR); 400 mM, d7", "value": "3.09^a"}
    ]}
  ]
}
